Measured values published in patent publication US20120010075A1 (priority 2009, published 2012).

Columns and labels:
Phytophthora capsici = experiment: In vitro fungitoxicity of hydrazones with and without copper towards Phytophthora capsici (Example 28, Table 3); type: cell-based; conditions: for % Inhn Plus copper Observed: copper-plus AS medium (CuCl2, 50 μM)
[1] = test system: Leptosphaeria nodorum (LEPTNO); experiment: In vitro fungitoxicity of hydrazones with and without copper towards Leptosphaeria nodorum (Example 26); type: cell-based; conditions: 72 h at 25° C.; for LEPTNO % Inhn. Plus Copper Observed: copper-plus medium (CuCl2.2H2O)
Phytophthora infestans = type: in vivo, Phytophthora infestans on tomato; conditions: hydrazone 50 ppm + 50 μM CuCl2.2H2O, applied 24 h before inoculation, assessed 7 days after inoculation, tomato
[2] = Phytophthora capsici, 0.039 μg/mL, copper-minus AS medium, 48 h, read-out: % Inhn Minus copper Observed
[3] = Parastagonospora nodorum, 72 h, compound 0.05 μg/mL, copper-minus medium, read-out: LEPTNO % Inhn. Minus Copper Observed
[4] = Phytophthora capsici, 0.050 μg/mL, copper-minus AS medium, 48 h, read-out: % Inhn Minus copper Observed
[5] = compound 0.05 μg/mL, copper-minus medium

Row | Compound | % Inhn Plus copper Observed (Phytophthora capsici; 0.039 μg/mL, 48 h) [%] | inhibition of growth at 0.039 µg/mL (Phytophthora capsici; [2]) [%] | inhibition of growth at 0.05 µg/mL [1, 3] [%] | LEPTNO % Inhn. Plus Copper Observed ([1]; compound 0.05 μg/mL) [%] | TLB % Control (Phytophthora infestans) [%] | melting point [°C] | % Inhn Plus copper Observed (Phytophthora capsici; 5 μg/mL, 48 h) [%] | inhibition of growth at 5 µg/mL (Phytophthora capsici; Phytophthora capsici, 5 μg/mL, copper-minus AS medium, 48 h, read-out: % Inhn Minus copper Observed) [%] | % Inhn Plus copper Observed (Phytophthora capsici; 0.050 μg/mL, 48 h) [%] | inhibition of growth at 0.05 µg/mL (Phytophthora capsici; [4]) [%] | % Inhn Plus copper Predicted (Phytophthora capsici; 0.039 μg/mL, Colby formula, CuCl2, 50 μM) [%] | % Inhn Minus copper Observed (Phytophthora capsici; 0.039 μg/mL, copper-minus AS medium, 48 h) [%] | LEPTNO % Inhn. Minus Copper Observed [1, 5] [%] | inhibition of growth at 0.156 µg/mL ([1]; Parastagonospora nodorum, 72 h, compound 0.156 μg/mL, copper-minus medium, read-out: LEPTNO % Inhn. Minus Copper Observed) [%] | LEPTNO % Inhn. Plus Copper Observed ([1]; compound 0.156 μg/mL) [%]
1 | Cc1cc(C)cc(C(=O)N/N=C/c2cc(Cl)cc(Cl)c2O)c1 [Example 102] | 93.6 | 15.7 | 0 | 93.4 | 74.0 | 207 to 209 |  |  |  |  |  |  |  |  | 
2 | O=C(N/N=C/c1cc(Cl)cc(Cl)c1O)c1ccc(-c2ccccc2)cc1 [Example 74] |  |  | 3 | 95.7 | 63.6 |  | 89.4 | 17.2 |  |  |  |  |  |  | 
3 | O=C(N/N=C/c1ccccc1O)c1cccc(C(F)(F)F)c1 [Example 61] | 95.6 | 17.6 | 3.8 | 93.6 | 60.0 |  |  |  |  |  |  |  |  |  | 
4 | O=C(N/N=C/c1cc(Cl)cc(Cl)c1O)c1cc(I)ccc1Br [Example 222] |  |  | 0 | 94.5 | 67.3 | 201 to 219 |  |  | 76.8 | 11.3 |  |  |  |  | 
5 | COc1ccc(O)c(/C=N/NC(=O)c2ccc(Cl)cc2)c1 [Example 207] | 88.9 | 0 | 0 | 95.3 | 52.7 |  |  |  |  |  |  |  |  |  | 
6 | O=C(N/N=C/c1cc(Cl)cc(Cl)c1O)c1cc(I)ccc1Cl [Example 225] |  |  | 0 | 96.6 | 78.2 | 198 to 201 |  |  | 82.8 | 11.4 |  |  |  |  | 
7 | O=C(CCc1cc(Br)c(O)c(Br)c1)N/N=C/c1cc(Cl)cc(Cl)c1O [Example 5] | 93.9 | 18.6 | 4.8 | 56.1 | 22.0 |  |  |  |  |  |  |  |  |  | 
8 | CNc1ccccc1C(=O)N/N=C/c1ccccc1O [Example 3] | 88.5 | 0 | 2.3 | 93.0 | 47.0 |  |  |  |  |  |  |  |  |  | 
9 | C=CCc1cccc(/C=N/NC(=O)c2ccccc2)c1O [Example 143] | 94.5 | 6 | 2.1 | 98.2 | 64.4 |  |  |  |  |  |  |  |  |  | 
10 | O=C(N/N=C/c1cccc(F)c1O)c1ccccc1 [Example 15] | 91.8 |  |  | 96.6 | 58.5 | 197 to 198 |  |  |  |  | 81.2 | 80.4 | 4.4 |  | 
11 | O=C(N/N=C/c1cc(Br)cc(Br)c1O)c1cc(I)ccc1Cl [Example 226] |  |  | 0 | 94.5 | 71.0 | 205 to 212 |  |  | 62.1 | 2.3 |  |  |  |  | 
12 | O=C(N/N=C/c1ccccc1O)c1ccc(-c2ccccc2)cc1 [Example 183] | 88.9 | 0 | 0 | 96.7 | 66.7 |  |  |  |  |  |  |  |  |  | 
13 | O=C(N/N=C/c1cc(Br)cc(Br)c1O)c1cc(Cl)ccc1Br [Example 220] |  |  | 0 | 95.3 | 89.1 | 215 to 218 |  |  | 85.5 | 13.4 |  |  |  |  | 
14 | Nc1ccccc1C(=O)N/N=C/c1cc(Cl)cc(Cl)c1O [Example 91] | 93.2 | 52.1 | 0 | 79.3 | 18.0 |  |  |  |  |  |  |  |  |  | 
15 | O=C(N/N=C/c1cc(Cl)cc(Cl)c1O)c1ccc2c(c1)OCO2 [Example 6] | 95.8 | 28.8 | 3.9 | 96.4 | 88.1 |  |  |  |  |  |  |  |  |  | 
16 | Cc1ccc(C(=O)N/N=C/c2cc(Br)cc(Br)c2O)c(Br)c1 [Example 229] |  |  | 6 | 98.0 | 70.9 | 258 to 261 |  |  | 89.1 | 1.6 |  |  |  |  | 

Row | Compound | % Inhn Plus copper Observed (Phytophthora capsici; 0.039 μg/mL, 48 h) [%] | inhibition of growth at 0.039 µg/mL (Phytophthora capsici; [2]) [%] | inhibition of growth at 0.05 µg/mL [1, 3] [%] | LEPTNO % Inhn. Plus Copper Observed ([1]; compound 0.05 μg/mL) [%] | TLB % Control (Phytophthora infestans) [%] | melting point [°C] | % Inhn Plus copper Observed (Phytophthora capsici; 5 μg/mL, 48 h) [%] | inhibition of growth at 5 µg/mL (Phytophthora capsici; Phytophthora capsici, 5 μg/mL, copper-minus AS medium, 48 h, read-out: % Inhn Minus copper Observed) [%] | % Inhn Plus copper Observed (Phytophthora capsici; 0.050 μg/mL, 48 h) [%] | inhibition of growth at 0.05 µg/mL (Phytophthora capsici; [4]) [%] | % Inhn Plus copper Predicted (Phytophthora capsici; 0.039 μg/mL, Colby formula, CuCl2, 50 μM) [%] | % Inhn Minus copper Observed (Phytophthora capsici; 0.039 μg/mL, copper-minus AS medium, 48 h) [%] | LEPTNO % Inhn. Minus Copper Observed [1, 5] [%] | inhibition of growth at 0.156 µg/mL ([1]; Parastagonospora nodorum, 72 h, compound 0.156 μg/mL, copper-minus medium, read-out: LEPTNO % Inhn. Minus Copper Observed) [%] | LEPTNO % Inhn. Plus Copper Observed ([1]; compound 0.156 μg/mL) [%]
17 | O=C(N/N=C/c1cc(Cl)cc(Cl)c1O)c1ccccc1C(F)(F)F [Example 56] | 94.1 | 57.5 | 2.1 | 96.3 | 81.3 | 106 to 111 |  |  |  |  |  |  |  |  | 
18 | O=C(N/N=C/c1ccccc1O)c1ccccc1O [Example 1] | 87.2 | 9.7 | 0.7 | 96.2 | 64.0 |  |  |  |  |  |  |  |  |  | 
19 | O=C(N/N=C/c1ccccc1O)c1cc(I)ccc1Br [Example 221] |  |  | 0 | 92.4 | 66.0 | 202 to 205 |  |  | 92.2 | 12 |  |  |  |  | 
20 | Cc1ccc(C(=O)N/N=C/c2cc(Br)cc(Br)c2O)c(C)c1 [Example 28] | 93.8 | 11.4 |  | 96.8 | 62.7 |  |  |  |  |  |  |  | 7.0 |  | 
21 | Cc1ccc(C(=O)N/N=C/c2ccccc2O)c(Br)c1 [Example 227] |  |  | 5 | 95.0 | 52.7 | 86 to 122 |  |  | 93.4 | 1.7 |  |  |  |  | 
22 | O=C(Cc1ccccc1)N/N=C/c1cc(Cl)cc(Br)c1O [Example 210] | 92.7 | 36.6 | 1.9 | 94.1 | 37.0 |  |  |  |  |  |  |  |  |  | 
23 | O=C(N/N=C/c1ccccc1O)c1cccc(Br)c1 [Example 182] | 90.9 | 25.9 | 0 | 97.6 | 74.6 |  |  |  |  |  |  |  |  |  | 
24 | C/C(=N\NC(=O)CCc1ccccc1)c1ccccc1O [Example 131] | 93.7 | 5.6 | 0 | 96.8 | 62.0 |  |  |  |  |  |  |  |  |  | 
25 | O=C(Cc1ccc(Cl)cc1)N/N=C/c1cc(Cl)cc(Cl)c1O [Example 123] | 94.8 | 16.3 | 7.5 | 95.5 | 71.0 |  |  |  |  |  |  |  |  |  | 
26 | O=C(N/N=C/c1cc(Cl)cc(Cl)c1O)c1ccccc1F [Example 101] | 88.2 | 70 | 7.8 | 97.3 | 85.3 |  |  |  |  |  |  |  |  |  | 
27 | O=C(N/N=C/c1ccccc1O)c1cc(I)ccc1Cl [Example 224] |  |  | 0 | 91.0 | 67.3 | 222 to 226 |  |  | 93.3 | 6.2 |  |  |  |  | 
28 | O=C(N/N=C/c1ccccc1O)c1cc(Cl)ccc1Br [Example 218] |  |  | 0 | 92.5 | 70.9 | 222 to 225 |  |  | 93.3 | 10.7 |  |  |  |  | 
29 | O=C(N/N=C/c1cc(Br)cc(Br)c1O)c1cc(I)ccc1Br [Example 223] |  |  | 26.9 | 97.2 | 54.0 | 215 to 216 |  |  | 51.3 | 2.5 |  |  |  |  | 
30 | O=C(N/N=C/c1cc(I)cc(I)c1O)c1ccccc1 [Example 146] | 91.4 | 11.8 | 0 | 96.2 | 71.2 |  |  |  |  |  |  |  |  |  | 
31 | Cc1ccc(/C=N/NC(=O)c2ccc(C(C)C)cc2)c(O)c1 [Example 14] | 87.2 | 0 |  |  | 7.5 |  |  |  |  |  |  |  |  | 2.9 | 59.1
32 | O=C(Cc1ccccc1)N/N=C/c1cc(Cl)cc(Cl)c1O [Example 125] | 89.4 | 66.6 | 2.4 | 94.4 | 87.0 |  |  |  |  |  |  |  |  |  | 
